Measurements taken from US10576092B1, “Doxorubicin derivatives and uses thereof” (S.S.Manufacturing Co. Ltd, priority 2019, dated 2020).

What was measured:
MCF-7 cells [1] = test: Fluorescent microscopy of subcellular distribution; assay type: cell-based, human; conditions: 120 μg/ml, observed at 60, 120 and 360 minutes
Experimental: Low numbers of MCF-7 cells were seeded into 8-well plate (3,000 cells/well) overnight.

MCF-7 cells [2] = test: Induction of MCF-7 cell apoptosis; assay type: cell-based, human
MCF-7 cells [3] = test: Cytosolic oxidative stress; assay type: cell-based, human
MCF-7 cells [4] = test: Cell cycle analysis; assay type: cell-based, human
MCF-7 cells [5] = test: MTT (WST-1) assay for cytotoxicity effect of compound A on tumor cells; conditions: 24 hours treatment
Experimental: The human breast cancer cell line, MCF-7, was obtained from American Type Cell Collection (ATCC) (Rockville, Mo., U.S.A.). The cells were cultured to 70-80% confluence in Dulbecco's modified Eagle medium (DMEM) (Gibco, Grand Island, N.Y., U.S.A.) with 10% fetal bovine serum (FBS) (Gibco) at 37° C. and 5% CO2. MCF-7 cells were plated overnight in a 96-well plate (4,000 cells per well). […] Next, 10 μl/well of WST-1/ECS solution from the Quick Cell Proliferation Colorimetric Assay Kit (BioVision, Inc., Milptas, Calif., U.S.A.) was added, and the solution was incubated for 2 hours at 37° C. and 5% CO2. […] The half maximal inhibitory concentrations (IC50s) were calculated from linear regression from the absorbance optical density (OD) of each triplicate concentration.

Experimental for Lipid solubility in oil: The suspended were vortexed and centrifuged at 3000 RPM, 10 mins periodically. Oil solvent volume was stepwise increased till completely soluble was observed and the soluble concentration were determined (Table1). The solutions were left at 24° C. overnight and were centrifuged at 5000 RPM for 20 mins. […] The suspensions were vigorously vortex and left at room temperature.

Compound	Solubility in Oil (40° C.) (Lipid solubility in oil; Canola Oil)	Solubility in Oil (40° C.) (Lipid solubility in oil; Ethiodized Oil)	Solubility in Oil (40° C.) (Lipid solubility in oil; Olive Oil)	entry into the nucleus (subcellular distribution) (MCF-7 cells [1])	induction of MCF-7 cell apoptosis (MCF-7 cells [2])	cytosolic oxidative stress (MCF-7 cells [3])	interference with the cell cycle (MCF-7 cells [4])	IC60 (MCF-7 cells [5])
COc1cccc2c1C(=O)c1c(O)c3c(c(O)c1C2=O)C[C@@](O)(C(=O)CO)C[C@@H]3O[C@H]1C[C@H](N)[C@H](O)[C@H](C)O1 [Doxorubicin]	less than 0.0001 mg/100 ml	less than 0.0001 mg/100 ml	less than 0.0001 mg/100 ml	–	–	–	–	–
((3bS)-7-hydroxy-11a-methyl-1H,2H,3H,3aH,3bH,4H,5H,9bH,10H,11H,11aH-cyclopenta[a]phenanthren-1-yl N-[(2S,3S,6R)-3-hydroxy-2-methyl-6-{[(1S,3S)-3,5,12-trihydroxy-3-(2-hydroxyacetyl)-10-methoxy-6,11-dioxo-1,2,3,4,6,11-hexahydrotetracen-1-yl]oxy}oxan-4-yl]carbamate) [Compound A]	–	–	–	without entering the nucleus	rapidly induced MCF-7 cell apoptosis	increased cytosolic oxidative stress	did not interfere with the cell cycle	~120 µg/mL
